{"source": "patent US20030148991A1", "about": "“Combination of lipoic acid and c1 donors for the treatment of disorders of the central nervous system” (priority 2000, published 2003)", "key": {"whole brain membranes": {"tested_on": "whole brain membranes", "assay": "Measurement of membrane fluidity (DPH fluorescence anisotropy)", "design": "species or system NMRI mice", "details": "whole brain membranes from old (22 months) mice; 1, 10, 100 μmol/l and 1 mmol/l; 37° C.; FIGS. 1 and 2", "description": "The fluidity of whole brain membranes (without cerebellum, medella oblongata and brain stem) from young (3 months) and old (22 months) NMRI mice was determined by fluorescence spectroscopy.\nMouse whole brain membranes were prepared by a modification of the method of Cohnen and Müller, 1993. The deep-frozen hemispheres were, after weighing, transferred into 15 ml of ice-cold buffer IV (Tris-HCl buffer 5 mmol/l; pH 7.4), homogenized using a homogenizer (Potter, glass homogenizer with Teflon pestle, from Braun) at about 1 100 rpm by moving the Teflon pestle up and down about ten times, and transferred into centrifuged tubes (PP30 ml, from Schubert). […]\nMembrane fluidity can be measured inter alia by fluorescence spectroscopic methods. In fluorescence polarization spectroscopy, a membrane-bound fluorescent dye is brought to an excited energy state by polarized light of a particular wavelength. […] Membrane fluidity is therefore also indicated as fluorescence anisotropy besides the fluorescence polarization. The anisotropy is in this case calculated from the measured polarization.\nThe fluorescent dye diphenylhexatriene (DPH) was used for this purpose. […] This process is measured as anisotropy. […]"}, "brain cells": {"tested_on": "brain cells", "assay": "Measurement of the production of free radicals (DHR 123 fluorescence)", "assay_type": "cell-based", "details": "100 and 500 μmol/l, time-dependent, compared with control, FIGS. 3 and 4", "description": "Oxidative stress or the production of free radicals was measured using the fluorescence dye dihydrorhodamine (DHR 123). Brain cells were enriched by incubation with DHR 123 in a waterbath at 37° C. for 15 minutes. DHR is then located in particualr in the mitochondria and fluoresces after oxidation by free radicals. Fluorescence was measured at an excitation wavelength of 500 nm and an emission wavelength of 536 nm. The generation of free radicals was then measured in the absence (control) and presence of lipoic acid at various concentrations (100 and 500 μmol/l)."}}, "data": [{"compound": "O=C(O)CCCCC1CCSS1", "note": "(centres unmarked) [lipoic acid, 5-(1,2-dithiolan-3-yl)valeric acid]", "values": [{"measurement": "DPH anisotropy (membrane fluidity)", "setting": "whole brain membranes", "value": "reduce the anisotropy in membranes from old mice"}, {"measurement": "generation of free radicals (increase in DHR 123 fluorescence)", "setting": "brain cells", "value": "counteracts the generation of free radicals"}]}]}
